According to patent publication US12534469B2 (CHILDREN'S HOSPITAL MEDICAL CENTER, priority 2020, dated 2026):
Where a chain is given by its changes, count along the chain named.

Tests used:
FLT3 K663Q = target: T1, FLT3 K663Q (Homo sapiens, UniProt P36888, K663Q); test: DiscoverX KINOMEscan competition binding assay, FLT3 K663Q
T1 construct: purchased DiscoverX (KINOMEscan); host or cells: E. coli (T7 phage) or HEK-293
T1 sequence (P36888 27-993 K663Q): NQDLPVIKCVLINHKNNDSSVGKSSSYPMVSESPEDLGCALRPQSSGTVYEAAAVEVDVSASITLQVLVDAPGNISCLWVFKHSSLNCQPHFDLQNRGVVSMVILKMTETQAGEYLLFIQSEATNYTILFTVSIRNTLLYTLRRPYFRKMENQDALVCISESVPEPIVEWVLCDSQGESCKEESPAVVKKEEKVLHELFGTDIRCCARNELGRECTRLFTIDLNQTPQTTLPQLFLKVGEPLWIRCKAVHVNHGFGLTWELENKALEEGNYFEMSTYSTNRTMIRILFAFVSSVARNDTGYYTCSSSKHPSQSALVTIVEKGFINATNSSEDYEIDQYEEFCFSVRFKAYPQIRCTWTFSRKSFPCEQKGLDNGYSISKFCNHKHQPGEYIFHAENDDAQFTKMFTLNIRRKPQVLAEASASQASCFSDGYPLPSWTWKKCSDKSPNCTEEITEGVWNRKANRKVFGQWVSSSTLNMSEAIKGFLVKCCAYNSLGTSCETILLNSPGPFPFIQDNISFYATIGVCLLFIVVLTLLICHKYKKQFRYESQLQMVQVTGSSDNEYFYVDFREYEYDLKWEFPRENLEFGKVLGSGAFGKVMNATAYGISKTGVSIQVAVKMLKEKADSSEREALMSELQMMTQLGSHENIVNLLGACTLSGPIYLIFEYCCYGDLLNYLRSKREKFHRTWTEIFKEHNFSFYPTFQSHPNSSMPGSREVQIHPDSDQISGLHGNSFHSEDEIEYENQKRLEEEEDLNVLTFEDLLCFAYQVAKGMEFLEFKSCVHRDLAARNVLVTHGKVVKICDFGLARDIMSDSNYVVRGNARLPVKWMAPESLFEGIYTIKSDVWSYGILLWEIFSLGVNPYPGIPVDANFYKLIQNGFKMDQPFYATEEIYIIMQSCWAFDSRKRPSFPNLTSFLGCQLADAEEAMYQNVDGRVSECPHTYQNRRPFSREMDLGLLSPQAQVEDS
Description: (§1) Kinase binding data were obtained for various exemplary compounds prepared according to Examples 1-25 using the DiscoverX KINOMEscan® active site-directed competition binding site-directed assay protocol described below. […] As a result, the data report thermodynamic interaction affinities (Kd values), rather than IC50 values that are dependent on ATP concentrations. The assay uses a DNA-tagged version of the protein kinase, and an immobilized ligand bound to a solid support. Compounds that directly or indirectly prevent kinase binding to the immobilized ligand reduce the amount of kinase captured on the solid support, which is detected using an ultra-sensitive qPCR method. Affinity constants reported from the assay have been reported to be independent of the immobilized ligand used that is coupled to the solid support (See supplemental information in Fabian, M. A. et. al., (2005) Nat. Biotechnol. 23, 329-336; Wodicka, L. M. et. al., (2010) Chem. Biol. 17, 1241-1249.)
(§2) Kinase-tagged T7 phage strains were prepared in an E. coli host derived from the BL21 strain. E. coli were grown to log-phase and infected with T7 phage and incubated with shaking at 32° C. until lysis. The lysates were centrifuged and filtered to remove cell debris. The remaining kinases were produced in HEK-293 cells and subsequently tagged with DNA for qPCR detection. […] The liganded beads were blocked with excess biotin and washed with blocking buffer (SeaBlock (Pierce), 1% BSA, 0.05% Tween 20, 1 mM DTT) to remove unbound ligand and to reduce non-specific binding. […] Test compounds were prepared as 111× stocks in 100% DMSO. Kds were determined using an 11-point 3-fold compound dilution series with three DMSO control points. […] The compounds were then diluted directly into the assays such that the final concentration of DMSO was 0.9%. All reactions were performed in polypropylene 384-well plates. Each was a final volume of 0.02 mL. […] The kinase concentration in the eluates was measured by qPCR.
(§3) Binding constants (Kds) were calculated with a standard dose-response curve using the Hill equation. […]

FLT3 = target: T2, FLT3 (Homo sapiens, UniProt P36888); test: DiscoverX KINOMEscan competition binding assay, FLT3
T2 construct: using full-length kinases in the presence of cellular concentrations of ATP in live, uncompromised cells; assay by Reaction Biology; host or cells: HEK-293 (ATCC), transient transfection
T2 sequence (P36888 27-993): T1 sequence (P36888 27-993 K663Q) with Q637K
Description: as §1, §2, §3

Kd (FLT3 K663Q)	Kd (FLT3)	Structure (SMILES)
0.37 nM	0.13 nM	COc1cc2ncc(-c3cccc(N[C@H]4CNCC[C@@H]4F)n3)n2nc1C1CC1 [Compound 102, 6-(6-cyclopropyl-7-methoxyimidazo[1,2-b]pyridazin-3-yl)-N-((3S,4S)-4-fluoropiperidin-3-yl)pyridin-2-amine]
0.6 nM	0.31 nM	COc1cc2ncc(-c3cccc(N[C@H]4CNC[C@@H]4F)n3)n2nc1C1CC1 [Compound 96, 6-(6-cyclopropyl-7-methoxyimidazo[1,2-b]pyridazin-3-yl)-N-((3S,4S)-4-fluoropyrrolidin-3-yl)pyridin-2-amine]
1.4 nM	0.19 nM	COc1cc2ncc(-c3cccc(N[C@@H]4CCNC4)n3)n2nc1C1CC1 [Compound 97, (R)-6-(6-cyclopropyl-7-methoxyimidazo[1,2-b]pyridazin-3-yl)-N-(pyrrolidin-3-yl)pyridin-2-amine]
